Measured values reported in ChEMBL document CHEMBL1127699, “Inhibitors of acyl-CoA:cholesterol acyltransferase. 1. Synthesis and hypocholesterolemic activity of dibenz[b,e]oxepin-11-carboxanilides” (J Med Chem, 1994).

Columns and labels:
[1] = target: T1, Acyl-CoA:cholesterol acyltransferase (Oryctolagus cuniculus, UniProt Q95214); test: In vitro inhibitory activity against acyl coenzyme A:cholesterol acyltransferase in liver microsomes isolated from cholesterol-fed rabbits; parameters: species or system Microsome
T1 sequence (Q95214 whole entry): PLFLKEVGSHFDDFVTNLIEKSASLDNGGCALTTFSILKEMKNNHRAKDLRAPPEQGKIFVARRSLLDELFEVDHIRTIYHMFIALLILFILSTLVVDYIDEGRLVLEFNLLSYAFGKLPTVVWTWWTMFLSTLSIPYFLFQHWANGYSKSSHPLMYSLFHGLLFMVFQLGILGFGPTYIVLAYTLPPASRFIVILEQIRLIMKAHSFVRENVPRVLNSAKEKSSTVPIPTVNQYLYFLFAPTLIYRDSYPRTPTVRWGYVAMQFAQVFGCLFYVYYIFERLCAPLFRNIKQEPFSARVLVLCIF

[2] = test system: Rattus norvegicus; test: Effect on serum cholesterol levels in male Dawley rats at a dose of 3 mg/kg/day, po (p<=0.01); assay type: functional
[3] = test system: Rattus norvegicus; test: Effect on liver cholesterol levels in male Dawley rats at a dose of 3 mg/kg/day, po (p<=0.01); assay type: functional
[4] = test system: Rattus norvegicus; test: Effect on serum cholesterol levels in male Dawley rats at a dose of 30 mg/kg/day, po (p<=0.01); assay type: functional
[5] = test system: Cricetinae gen. sp.; test: (§1) In vivo hypocholesterolemic activity in golden hamsters, fed with a diet containing 2% cholesterol at a dose of 10 mg/kg, po; assay type: functional
[6] = test system: Cricetinae gen. sp.; test: In vivo hypocholesterolemic activity in golden hamsters, fed with a diet containing 2% cholesterol at a dose of 100 mg/kg; assay type: functional, Mesocricetus auratus
[7] = test system: Mesocricetus auratus; test: In vivo hypocholesterolemic activity in golden hamsters, fed with a diet containing 2% cholesterol at a dose of 30 mg/kg, po
[8] = test system: Rattus norvegicus; test: Effect on liver cholesterol levels in male Dawley rats at a dose of 30 mg/kg/day, po (p<=0.01); assay type: functional
[9] = test system: Rattus norvegicus; test: Effect on liver cholesterol levels in male Dawley rats at a dose of 10 mg/kg/day, po (p<=0.01); assay type: functional
[10] = test system: Rattus norvegicus; test: Effect on liver cholesterol levels in male Dawley rats at a dose of 1 mg/kg/day, po (p<=0.01); assay type: functional
[11] = test system: Rattus norvegicus; test: Effect on serum cholesterol levels in male Dawley rats at a dose of 10 mg/kg/day, po (p<=0.01); assay type: functional
[12] = test system: Rattus norvegicus; test: Effect on serum cholesterol levels in male Dawley rats at a dose of 1 mg/kg/day, po (p<=0.05); assay type: functional
[13] = target: T2, Acyl-CoA:cholesterol acyltransferase (Oryctolagus cuniculus) (UniProt Q95214); test: In vitro inhibitory activity against Acyl coenzyme A:cholesterol acyltransferase in liver microsomes isolated from cholesterol-fed rabbits at 1 uM; details: Microsome
T2 sequence (whole entry): T1 sequence (Q95214 whole entry)

[14] = target: T2, Acyl-CoA:cholesterol acyltransferase (Oryctolagus cuniculus); test: In vitro inhibitory activity against Acyl coenzyme A:cholesterol acyltransferase in liver microsomes isolated from cholesterol-fed rabbits; details: Microsome, concentration not given here
[15] = test system: Cricetinae gen. sp.; test: as §1; assay type: functional, Mesocricetus auratus
[16] = test system: Cricetinae gen. sp.; test: (§2) In vivo hypocholesterolemic activity in golden hamsters, fed with a diet containing 2% cholesterol at a dose of 30 mg/kg, po; assay type: functional, Mesocricetus auratus
[17] = test system: Cricetinae gen. sp.; test: as §2; assay type: functional, Cricetulus griseus

SMILES	IC50 [1] [nM]	Reduction [6] [%]	other results
CC(C)c1cccc(C(C)C)c1NC(=O)C1c2ccccc2COc2ccc(Br)cc21 (configuration not stated)	23	143	Cholesterol level [2]: 167 mg/dL; Cholesterol level [3]: 15 mg/g; Cholesterol level [4]: 108 mg/dL; Reduction [5]: 101%; Reduction [7]: 114%; Cholesterol level [8]: 6.3 mg/g; Cholesterol level [9]: 10.4 mg/g; Cholesterol level [10]: 19.2 mg/g; Cholesterol level [11]: 114 mg/dL; Cholesterol level [12]: 214 mg/dL
Cc1cccc(C)c1NC(=O)C1c2ccccc2COc2ccc(C(C)(C)C)cc21 (configuration not stated)	500	-42	
Cc1ccc2c(c1)C(C(=O)Nc1c(C(C)C)cccc1C(C)C)c1ccccc1CO2 (configuration not stated)	50	106	Reduction [7]: 70%
Cc1ccc2c(c1)C(/C(S)=N/c1c(C(C)C)cccc1C(C)C)c1ccccc1CO2 (configuration not stated)			inhibition [13]: 15%
Cc1ccc2c(c1)C(C(=O)Nc1ccccc1)c1ccccc1CO2 (configuration not stated)		10	inhibition [14]: 15%
Cc1ccc2c(c1)C(C(=O)Nc1c(Br)cccc1Br)c1ccccc1CO2 (configuration not stated)	190	6	
CC(C)c1cccc(C(C)C)c1NC(=O)C1c2ccccc2COc2ccc([N+](=O)[O-])cc21 (configuration not stated)	240		
CC(C)c1cccc(C(C)C)c1NC(=O)C1c2ccccc2CCc2ccccc21	40		Reduction [15]: 3%; Reduction [16]: 89%
CCc1ccc2c(c1)C(C(=O)Nc1c(C(C)C)cccc1C(C)C)c1ccccc1CO2 (configuration not stated)	130	51	
CC(C)c1cccc(C(C)C)c1/N=C(\S)C1c2ccccc2COc2ccc(Br)cc21 (configuration not stated)			inhibition [14]: 33%
CC(C)c1cccc(C(C)C)c1NC(=O)C1c2ccccc2COc2ccc(C(=O)N(C)C)cc21 (configuration not stated)	400		
CCCCCCCN(Cc1ccc(CC(C)(C)C)cc1)C(=O)Nc1ccc(F)cc1F [CL-277082]			Reduction [15]: 35%; Reduction [16]: 71%
CC(C)c1cccc(C(C)C)c1NC(=O)C1c2ccccc2COc2ccc(C#N)cc21 (configuration not stated)	490		eduction [17]: -6%
CC(C)c1cccc(C(C)C)c1NC(=O)C1c2ccccc2COc2ccc(I)cc21 (configuration not stated)	35		Reduction [7]: 73%
CC(C)c1cccc(C(C)C)c1NC(=O)C1c2ccccc2COc2ccc(Cl)cc21 (configuration not stated)	150	97	
Cc1ccc2c(c1)C(C(=O)Nc1ccccc1C(C)C)c1ccccc1CO2 (configuration not stated)	730	18	
Cc1cc2c(cc1C)C(C(=O)Nc1c(C(C)C)cccc1C(C)C)c1ccccc1CO2 (configuration not stated)	64		Reduction [7]: 27%
CC(C)c1cccc(C(C)C)c1NC(=O)C1c2ccccc2OCc2ncccc21 (configuration not stated)	640		
COc1cc(OC)c(NC(=O)C2c3ccccc3COc3ccc(C)cc32)c(OC)c1 (configuration not stated)	580		
CSc1ccc2c(c1)C(C(=O)Nc1c(C(C)C)cccc1C(C)C)c1ccccc1CO2 (configuration not stated)	7		Reduction [7]: 5%
COC(=O)c1ccc2c(c1)C(C(=O)Nc1c(C(C)C)cccc1C(C)C)c1ccccc1CO2 (configuration not stated)	180	89	
CCc1cccc(CC)c1NC(=O)C1c2ccccc2COc2ccc(C(C)C)cc21 (configuration not stated)	500	25	
Cc1cc(Br)c2c(c1)C(C(=O)Nc1c(C(C)C)cccc1C(C)C)c1ccccc1CO2 (configuration not stated)	100		Reduction [7]: 67%
CCc1cccc(CC)c1NC(=O)C1c2ccccc2COc2ccc(C)cc21 (configuration not stated)	270	49	
CC(C)c1cccc(C(C)C)c1NC(=O)C1c2ccccc2COc2cc(Br)ccc21 (configuration not stated)	180	-2	
Cc1ccc2c(c1)C(C(=O)Nc1c(C(C)C)cccc1C(C)C)c1cc(Br)ccc1CO2 (configuration not stated)	120		Reduction [7]: 17%

SMILES	IC50 [1] [nM]	Reduction [6] [%]	other results
Cc1ccc2c(c1)C(C(=O)Nc1c(Cl)cccc1Cl)c1ccccc1CO2 (configuration not stated)	190	25	
CC(C)c1cccc(C(C)C)c1NC(=O)C1c2cc(Br)ccc2COc2ccc(Br)cc21 (configuration not stated)	58		Reduction [7]: 40%
CC(C)c1cccc(C(C)C)c1NC(=O)C1c2ccccc2CSc2ccc(Br)cc21 (configuration not stated)	150		Reduction [16]: 67%
CC(C)c1cccc(C(C)C)c1NC(=O)C1c2ccccc2COc2ccc(CO)cc21 (configuration not stated)	580		
CC(C)c1cccc(C(C)C)c1NC(=O)C1c2ccccc2COc2ccc(C(F)(F)F)cc21 (configuration not stated)	160		Reduction [7]: 63%
O=C(Nc1c(Cl)cccc1Cl)C1c2ccccc2COc2cc(Br)ccc21 (configuration not stated)	940		
Cc1cccc(C)c1NC(=O)C1c2ccccc2COc2ccc(C(C)C)cc21 (configuration not stated)	360		
COC(=O)c1cc(C)cc2c1OCc1ccccc1C2C(=O)Nc1c(C(C)C)cccc1C(C)C (configuration not stated)	27		Reduction [5]: 28%; Reduction [7]: 84%
Cc1cc(C)c(NC(=O)C2c3ccccc3COc3ccc(C)cc32)c(C)c1 (configuration not stated)	110		
CC(C)c1cccc(C(C)C)c1NC(=O)C1c2cc(Br)ccc2OCc2ncccc21 (configuration not stated)	78		Reduction [7]: 47%
CC(C)c1cccc(C(C)C)c1NC(=O)C1c2ccccc2COc2ccc(F)cc21 (configuration not stated)	210	53	
CC(C)c1cccc(C(C)C)c1NC(=O)C1c2ccccc2COc2ccc(C(=O)O)cc21 (configuration not stated)			inhibition [14]: 1%
COc1ccc2c(c1)C(C(=O)Nc1c(C(C)C)cccc1C(C)C)c1ccccc1CO2 (configuration not stated)	140		Reduction [7]: 22%
CC(C)(C)c1ccc2c(c1)C(C(=O)Nc1c(Cl)cccc1Cl)c1ccccc1CO2 (configuration not stated)	420		
CC(C)c1cccc(C(C)C)c1NC(=O)C1c2ccccc2C(=O)N(C)c2ccc(Br)cc21 (configuration not stated)	240		
Cc1ccc2c(c1)C(C(=O)Nc1c(C(C)C)cccc1C(C)C)c1ccccc1CC2 (configuration not stated)	55		Reduction [15]: -1%; Reduction [16]: 93%
CCc1cccc(CC)c1NC(=O)C1c2ccccc2COc2ccc(Br)cc21 (configuration not stated)	250	64	
CC(C)c1cccc(C(C)C)c1NC(=O)C1c2ccccc2C=Cc2ccccc21	25		Reduction [16]: 73%
CC(C)c1cccc(C(C)C)c1NC(=O)C1c2ccccc2CCc2ccc(Br)cc21 (configuration not stated)	39		Reduction [15]: 42%
Cc1cc(C(=O)O)c2c(c1)C(C(=O)Nc1c(C(C)C)cccc1C(C)C)c1ccccc1CO2 (configuration not stated)			inhibition [14]: 28%
CC(C)c1cccc(C(C)C)c1NC(=O)C1c2cc(Br)ccc2COc2ccccc21 (configuration not stated)	190		Reduction [7]: 8%
O=C(Nc1c(Cl)cccc1Cl)C1c2ccccc2COc2ccc(Br)cc21 (configuration not stated)	74		Reduction [7]: 0%
Cc1ccc2c(c1)C(C(=O)Nc1c(C)cccc1C)c1ccccc1CO2 (configuration not stated)	350	25	
CC(C)c1cccc(C(C)C)c1NC(=O)C1c2ccccc2COc2ccccc21 (configuration not stated)	94	2	
O=C(Nc1ccc(F)cc1F)C1c2ccccc2COc2ccc(Br)cc21 (configuration not stated)	580		
Cc1ccc2c(c1)C(C(=O)Nc1c(C)cccc1Cl)c1ccccc1CO2 (configuration not stated)	260		
